According to PMC6941124 (International Journal of Molecular Sciences, 2019):

Legend:
CK1δ A36V = biological target: T1, CK1δ A36V (Homo sapiens, UniProt P48730, A36V); assay: in vitro kinase assay, CK1δ mutant A36V; format: biochemical; conditions: inhibitor at IC50 concentration previously determined for CK1δ WT; DMSO control = 100%; adjusted to WT = 50%; mean ± SD
T1 sequence (P48730 1-415 A36V): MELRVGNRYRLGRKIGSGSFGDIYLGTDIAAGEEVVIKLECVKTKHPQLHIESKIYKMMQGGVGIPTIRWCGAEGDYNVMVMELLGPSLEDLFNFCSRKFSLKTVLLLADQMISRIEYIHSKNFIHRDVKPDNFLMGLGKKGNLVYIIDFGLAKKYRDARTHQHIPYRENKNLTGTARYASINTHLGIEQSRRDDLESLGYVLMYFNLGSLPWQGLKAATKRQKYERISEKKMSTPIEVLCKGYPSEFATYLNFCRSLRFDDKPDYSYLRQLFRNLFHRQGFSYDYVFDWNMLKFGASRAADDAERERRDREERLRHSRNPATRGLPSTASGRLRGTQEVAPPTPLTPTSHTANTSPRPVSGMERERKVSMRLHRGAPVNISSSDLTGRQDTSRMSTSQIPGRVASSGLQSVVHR
Experimental: (§1) Overexpression and purification of GST-CK1δ fusion proteins, either wild type or mutant, were performed as described previously.
(§2) Each kinase assay reaction was performed in kinase buffer (25 mM Tris-HCl (pH 7.5), 10 μM ATP, 10 mM MgCl2, 100 μM EDTA) in presence of purified GST-CK1δ kinase as source of enzyme (either wild type or mutant), an assay-specific substrate (α-casein, GST-p53^1−64, or GST-β-catenin^1−181), and radiolabeled ATP (2 μCi [γ-^32P]-ATP). For performing Michaelis–Menten analysis increasing substrate concentrations were used (α-casein: 0.39−25 μM; GST-p53^1−64: 0.09−1.87 μM; GST-β-catenin^1−181: 0.07−1.32 μM). For biological evaluation of small molecule inhibitors (SMIs), each inhibitor compound was either tested at 10 μM concentration for initial screening or by using a dilution series (0.005−10 µM) for determination of IC50 values. DMSO was used as control. Reactions were incubated for 30 min at 30 °C and reactions were stopped using 5x SDS-loading buffer (250 mM Tris-HCl [pH 6.8], 25% (v/v) β-mercaptoethanol (MSH), 50% (v/v) glycerol, 10% (w/v) SDS, 0.5% (w/v) bromphenol blue). Subsequently, samples were separated by SDS-PAGE using 12.5% acrylamide gels, stained with Coomassie, and phosphorylated substrates were visualized on X-ray film. Incorporation of radiolabeled phosphate was quantified by scintillation counting of Coomassie-stained substrate bands. Defined dilutions of the reaction master mix were counted as well in order to convert results obtained as counts per minute (CPM) to units of transferred phosphate in pmol/min. Michaelis–Menten analysis was performed using GraphPad Prism 6 (GraphPad Software, San Diego, CA, USA).

CK1δ Q399* = biological target: T2, CK1δ Q399* (Homo sapiens, UniProt P48730); assay: in vitro kinase assay, CK1δ mutant Q399*; format: biochemical; conditions: inhibitor at IC50 concentration previously determined for CK1δ WT; DMSO control = 100%; adjusted to WT = 50%; mean ± SD
T2 sequence (P48730 1-398): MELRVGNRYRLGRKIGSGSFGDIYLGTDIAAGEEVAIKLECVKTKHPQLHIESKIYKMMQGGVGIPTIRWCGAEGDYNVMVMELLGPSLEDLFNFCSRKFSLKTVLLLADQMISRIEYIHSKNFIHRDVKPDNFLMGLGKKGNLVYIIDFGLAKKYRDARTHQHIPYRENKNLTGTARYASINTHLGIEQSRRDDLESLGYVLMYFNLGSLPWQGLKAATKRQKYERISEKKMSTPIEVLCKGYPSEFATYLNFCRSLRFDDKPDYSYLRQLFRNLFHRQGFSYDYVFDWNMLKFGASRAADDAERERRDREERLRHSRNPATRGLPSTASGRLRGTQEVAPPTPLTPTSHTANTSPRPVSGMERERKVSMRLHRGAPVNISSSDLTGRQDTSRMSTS
Experimental: as §1, §2

Residual activity of CK1δ A36V (CK1δ A36V) [%] | Residual activity of CK1δ Q399* (CK1δ Q399*) [%] | SMILES
43 ± 15 | 75 ± 30 | O=C(Nc1nc2ccc(C(F)(F)F)cc2[nH]1)c1csc(NC(=O)c2ccccc2OC(F)(F)F)n1 [Bischof-5]
55 ± 6 | 53 ± 27 | Cc1ccc2nc(NC(=O)CSc3nc4c(c(=O)n3-c3ccccc3)SCC4)sc2c1 [IWP-2]
49 ± 7 | 96 ± 79 | COc1ccccc1-n1c(SCC(=O)Nc2nc3ccc(C)cc3s2)nc2c(c1=O)SCC2 [IWP-4]
